Test: Antioxidant activity in brain homogenate assessed as drug level require to inhibit 50% of spontaneous lipid peroxidation relative to control
Format: functional, tissue-based

SMILES | Activity
O=c1c(O)c(-c2ccc(O)c(O)c2)oc2cc(O)cc(O)c12 | 7.6 µg/mL
Cc1c(C)c2c(c(C)c1O)CC[C@@](C)(CCC[C@H](C)CCC[C@H](C)CCCC(C)C)O2 | 12.1 µg/mL
COc1cc(O)c(C(=O)CCc2ccc(O)cc2)c(OC)c1 | 4.7 µg/mL
COc1ccc(CCC(=O)c2c(O)cc(O)cc2OC)cc1 | 6.9 µg/mL
COc1ccc(CCC(=O)c2c(OC)cc(O)c([C@H](c3ccc(O)cc3)[C@@H](C)[C@H](C)Cc3ccc(O)cc3)c2O)cc1 (relative stereo) | 4.8 µg/mL
COc1ccc(CCC(=O)c2c(OC)cc(O)c([C@@H](c3ccc(O)cc3)[C@@H](C)[C@H](C)Cc3ccc(O)cc3)c2O)cc1 (relative stereo) | 5.5 µg/mL

Reference: ChEMBL document CHEMBL1144132, “Dihydrochalcones and flavonolignans from Iryanthera lancifolia” (J Nat Prod, 1999)
